The results in this text go back to patent publication US20240279233A1, “MACROCYCLIC TAK1 INHIBITORS” (Aqilion AB, priority 2021, published 2024).

For orientation: IC50 means the point on the concentration scale where inhibition reaches its midpoint.

Chain of human recombinant TAK1-TAB1 Kinase (TAK1 (1-303) and TAB1 (437-end)) (O43318 other isoform, or with tags, fused parts or gaps): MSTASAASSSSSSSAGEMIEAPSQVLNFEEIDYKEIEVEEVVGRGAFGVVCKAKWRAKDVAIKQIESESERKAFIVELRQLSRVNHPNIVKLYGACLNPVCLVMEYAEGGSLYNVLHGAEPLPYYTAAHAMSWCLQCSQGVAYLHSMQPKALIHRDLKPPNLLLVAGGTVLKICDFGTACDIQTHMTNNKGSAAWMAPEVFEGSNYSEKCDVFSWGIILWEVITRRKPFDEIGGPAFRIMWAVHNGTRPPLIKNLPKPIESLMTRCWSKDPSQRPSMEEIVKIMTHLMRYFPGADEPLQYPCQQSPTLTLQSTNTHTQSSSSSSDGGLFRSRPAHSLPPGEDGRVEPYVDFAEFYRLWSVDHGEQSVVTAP

The target of the first assay is human recombinant TAK1-TAB1 Kinase (TAK1 (1-303) and TAB1 (437-end)) (Homo sapiens (Human), UniProt O43318). The experiment in a line: TAK1 biochemical ADP-Glo kinase assay. Conditions: 10 μM ATP, MBP substrate; read-out: TAK1 Mean IC50 (nM) @ 10 μM ATP. As to the method:
The usefulness of the example compounds of the invention as TAK1 inhibitors was evaluated in a biochemical ADP-Glo kinase assay. Assay kits from Promega Corporation V4089 were used according to manufacturer's instructions and adapted as outlined here. ADP-Glo Kinase Assay kit contains ADP-Glo Reagent, Kinase Detection Reagent, kinase detection buffer, ATP, and ADP. The Kinase Enzyme Systems include human recombinant TAK1-TAB1 Kinase (TAK1 (1-303) and TAB1 (437-end)), Native Swine Myelin Basic Protein (MBP) substrate, 5×kinase reaction buffer, and DTT.
Test compounds were prepared in 1:5 serial dilutions at 8 concentrations in DMSO from 10 mM stock solutions. An additional 20-fold dilution in 1× kinase reaction buffer (see below) was performed, yielding a final dilution series in kinase buffer with 5% DMSO (final concentration in assay from 20 μM to 0.26 nM, 1% DMSO). As controls, Takinib was prepared as positive control (3 μM final in assay), and DMSO without inhibitor served as negative control, at a final assay concentration of DMSO of 1%.
One μl of compound solution in 5% DMSO was added to each well in a 384 well microtiter plate (OptiPlate #6007290). Two μl TAK1-TAB1 (7.5 ng/μl) in lxkinase reaction buffer ([…] Tris base pH 7.5, 20 mM MgCl2, 50 μM DTT, 0.1 mg/ml BSA) was added and pre-incubated 10 min before adding 2 μl of a mixture of MBP substrate and ATP (0.25 μg/μL MBP/25 μM ATP or 0.25 μg/μL MBP/2.5 mM ATP) in 1× kinase reaction buffer (as above). The plate was subsequently incubated at room temperature for 1 hour. Then 5 μl ADP-Glo™ reagent from ADP-Glo™ kit (as above) was added and incubated for 40 min to stop the reaction and consume remaining ATP. Ten μl kinase detection substrate (dissolved in kinase detection buffer, both from ADP-Glo™ kit as above) was then added to convert ADP to ATP and detect ATP with luciferase/luciferin. The plate was incubated for 30 minutes at room temperature in dark before reading luminescence on an Envision (PerkinElmer) reader.
IC50 values of compounds of the invention were determined by the non-linear regression analysis of dose response curves.
A general note: ADP-Glo first removes unused ATP, then detects ADP through luciferase.
With `CC1CCCCNC(=O)c2cccc(c2)C(=O)Nc2nc3cccc(C(=O)N(C)C)c3n21` (single isomer, unassigned) [Example 31, (E)-N,N,11-trimethyl-3,5-dioxo-1^2,1^3-dihydro-1^1H-2,6-diaza-1(2,1)-benzo[d]imidazola-4(1,3)-benzenacycloundecaphane-1^7-carboxamide], the IC50 is 3 nM.
Same read-out and setting: the same measure for `CC1CCCCNC(=O)c2cccc(c2)C(=O)Nc2nc3cccc(-c4ccc[nH]c4=O)c3n21` (single isomer, unassigned) [Example 35, (E)-11-methyl-1^7-(2-oxo-1,2-dihydropyridin-3-yl)-1^2,1^3-dihydro-1^1H-2,6-diaza-1(2,1)-benzo[d]imidazola-4(1,3)-benzenacycloundecaphane-3,5-dione]: 5 nM.
Same read-out and setting: with `CC1CCCCNC(=O)c2cccc(c2)C(=O)Nc2nc3cccc(-c4ccc[nH]c4=O)c3n21` (single isomer, unassigned) [Example 36, (E)-11-methyl-1^7-(2-oxo-1,2-dihydropyridin-3-yl)-1^2,1^3-dihydro-1^1H-2,6-diaza-1(2,1)-benzo[d]imidazola-4(1,3)-benzenacycloundecaphane-3,5-dione] the figure was 6 nM.
Turning to `C[C@H]1CCCCNC(=O)c2cccc(c2)C(=O)Nc2nc3ccc(Cl)c(C(=O)N(C)C)c3n21` (single isomer, unassigned) [Example 53], the IC50 came out at 258 nM.
In the case of `CC1CCCCNC(=O)c2cccc(c2)C(=O)/N=C2\Nc3cccc(C4CCCNC4=O)c3N21` (single isomer, unassigned) [Example 58, (E)-11-methyl-1^7-(2-oxopiperidin-3-yl)-1^2,1^3-dihydro-1^1H-2,6-diaza-1(2,1)-benzo[d]imidazola-4(1,3)-benzenacycloundecaphane-3,5-dione], the IC50 came to 4 nM.
In the case of `CC1CCCCNC(=O)c2cccc(c2)C(=O)/N=C2\Nc3cccc(C4CCCNC4=O)c3N21` (single isomer, unassigned) [Example 59, (E)-11-methyl-1^7-(2-oxopiperidin-3-yl)-1^2,1^3-dihydro-1^1H-2,6-diaza-1(2,1)-benzo[d]imidazola-4(1,3)-benzenacycloundecaphane-3,5-dione], the IC50 was found to be 4 nM.
For the molecule `CC1CCCCNC(=O)c2cccc(c2)C(=O)/N=C2\Nc3cccc(C4CCCNC4=O)c3N21` (single isomer, unassigned) [Example 60, (E)-11-methyl-1^7-(2-oxopiperidin-3-yl)-1^2,1^3-dihydro-1^1H-2,6-diaza-1(2,1)-benzo[d]imidazola-4(1,3)-benzenacycloundecaphane-3,5-dione], the IC50 is 5 nM.
As to `CC1CCCCNC(=O)c2cccc(c2)C(=O)/N=C2\Nc3cccc(C4CCCNC4=O)c3N21` (single isomer, unassigned) [Example 61, (E)-11-methyl-1^7-(2-oxopiperidin-3-yl)-1^2,1^3-dihydro-1^1H-2,6-diaza-1(2,1)-benzo[d]imidazola-4(1,3)-benzenacycloundecaphane-3,5-dione], the IC50 worked out at 4 nM.
Still for that read-out and setting: the same measure for `CC1CCCCNC(=O)c2cccc(c2)C(=O)/N=C2\Nc3cccc(-c4cc[nH]c(=O)c4)c3N21` (single isomer, unassigned) [Example 62, (E)-11-methyl-1^7-(2-oxo-1,2-dihydropyridin-4-yl)-1^2,1^3-dihydro-1^1H-2,6-diaza-1(2,1)-benzo[d]imidazola-4(1,3)-benzenacycloundecaphane-3,5-dione]: 12 nM; for `CC1CCCCNC(=O)c2cccc(c2)C(=O)/N=C2\Nc3cccc(-c4cc[nH]c(=O)c4)c3N21` (single isomer, unassigned) [Example 63, (E)-11-methyl-1^7-(2-oxo-1,2-dihydropyridin-4-yl)-1^2,1^3-dihydro-1^1H-2,6-diaza-1(2,1)-benzo[d]imidazola-4(1,3)-benzenacycloundecaphane-3,5-dione]: 8 nM.
On the same count and under the same terms, the same measure for `CCC1CCCCNC(=O)c2cccc(c2)C(=O)Nc2nc3cccc(C(=O)N(C)C)c3n21` (single isomer, unassigned) [Example 67, (E)-11-ethyl-N,N-dimethyl-3,5-dioxo-1^2,1^3-dihydro-1^1H-2,6-diaza-1(2,1)-benzo[d]imidazola-4(1,3)-benzenacycloundecaphane-1^7-carboxamide]: 5 nM.
Same read-out and setting: with `CCC1CCCCNC(=O)c2cccc(c2)C(=O)Nc2nc3cccc(C(=O)N(C)C)c3n21` (single isomer, unassigned) [Example 68, (E)-11-ethyl-N,N-dimethyl-3,5-dioxo-1^2,1^3-dihydro-1^1H-2,6-diaza-1(2,1)-benzo[d]imidazola-4(1,3)-benzenacycloundecaphane-1^7-carboxamide] the figure was 4 nM; with `CC1CCCCNC(=O)c2cccc(c2)C(=O)/N=C2\Nc3cccc(C(=O)N(C)CCF)c3N21` (single isomer, unassigned) [Example 71, (E)-N-(2-fluoroethyl)-N,11-dimethyl-3,5-dioxo-1^2,1^3-dihydro-1^1H-2,6-diaza-1(2,1)-benzo[d]imidazola-4(1,3)-benzenacycloundecaphane-1^7-carboxamide], 6 nM; with `CC1CCCCNC(=O)c2cccc(c2)C(=O)/N=C2\Nc3cccc(C(=O)N(C)CC(F)F)c3N21` (single isomer, unassigned) [Example 72, (E)-N-(2,2-difluoroethyl)-N,11-dimethyl-3,5-dioxo-1^2,1^3-dihydro-1^1H-2,6-diaza-1(2,1)-benzo[d]imidazola-4(1,3)-benzenacycloundecaphane-1^7-carboxamide], 7 nM.
Regarding `CC1CCCCNC(=O)c2cccc(c2)C(=O)/N=C2\Nc3cccc(C(=O)N(C)CC(F)F)c3N21` (single isomer, unassigned) [Example 73, (E)-N-(2,2-difluoroethyl)-N,11-dimethyl-3,5-dioxo-1^2,1^3-dihydro-1^1H-2,6-diaza-1(2,1)-benzo[d]imidazola-4(1,3)-benzenacycloundecaphane-1^7-carboxamide], the IC50 turned out to be 5 nM.
The same measure, in the same setting: the same measure for `CC1CCCCNC(=O)c2cccc(c2)C(=O)/N=C2\Nc3cccc(C(=O)N4CCOC[C@H]4C)c3N21` (single isomer, unassigned) [Example 75]: 11 nM; for `CC1CCCCNC(=O)c2cccc(c2)C(=O)/N=C2\Nc3cccc(C(=O)N4CCOC[C@@H]4C)c3N21` (single isomer, unassigned) [Example 77]: 5 nM; for `CC1CCCCNC(=O)c2cccc(c2)C(=O)/N=C2\Nc3cccc(C(=O)N4CC5(CCO5)C4)c3N21` (single isomer, unassigned) [Example 80, (E)-11-methyl-1^7-(1-oxa-6-azaspiro[3.3]heptane-6-carbonyl)-1^2,1^3-dihydro-1^1H-2,6-diaza-1(2,1)-benzo[d]imidazola-4(1,3)-benzenacycloundecaphane-3,5-dione]: 5 nM.
The same measure, in the same setting: the same measure for `COC1CN(C(=O)c2cccc3c2N2/C(=N/C(=O)c4cccc(c4)C(=O)NCCCCC2C)N3)C1` (single isomer, unassigned) [Example 81, (E)-1^7-(3-methoxyazetidine-1-carbonyl)-11-methyl-1^2,1^3-dihydro-1^1H-2,6-diaza-1(2,1)-benzo[d]imidazola-4(1,3)-benzenacycloundecaphane-3,5-dione]: 6 nM.
Same read-out and setting: with `COC1CN(C(=O)c2cccc3c2N2/C(=N/C(=O)c4cccc(c4)C(=O)NCCCCC2C)N3)C1` (single isomer, unassigned) [Example 82, (E)-1^7-(3-methoxyazetidine-1-carbonyl)-11-methyl-1^2,1^3-dihydro-1^1H-2,6-diaza-1(2,1)-benzo[d]imidazola-4(1,3)-benzenacycloundecaphane-3,5-dione] the figure was 7 nM; with `CC1CCCCNC(=O)c2cccc(c2)C(=O)/N=C2\Nc3cccc(C(=O)N4CC[C@H](F)C4)c3N21` (single isomer, unassigned) [Example 88], 9 nM.
`CC1CCCCNC(=O)c2cccc(c2)C(=O)Nc2nc3cccc(-c4nccn4C(F)F)c3n21` (single isomer, unassigned) [Example 91, (E)-1^7-(1-(difluoromethyl)-1H-imidazol-2-yl)-11-methyl-1^2,1^3-dihydro-1^1H-2,6-diaza-1(2,1)-benzo[d]imidazola-4(1,3)-benzenacycloundecaphane-3,5-dione]: the IC50 came out at 5 nM.
With `CC1CCCCNC(=O)c2cccc(c2)C(=O)/N=C2\Nc3cccc(C(=O)N4CC[C@@H](F)C4)c3N21` (single isomer, unassigned) [Example 92], the IC50 amounted to 6 nM.

Staying with this assay, now noted: 1 mM ATP, MBP substrate; read-out: TAK1 Mean IC50 (nM) @ 1 mM ATP.
As to `CC1CCCCNC(=O)c2cccc(c2)C(=O)Nc2nc3cccc(C(=O)N(C)C)c3n21` (single isomer, unassigned) [Example 31, (E)-N,N,11-trimethyl-3,5-dioxo-1^2,1^3-dihydro-1^1H-2,6-diaza-1(2,1)-benzo[d]imidazola-4(1,3)-benzenacycloundecaphane-1^7-carboxamide], the IC50 turned out to be 14 nM.
Turning to `CC1CCCCNC(=O)c2cccc(c2)C(=O)/N=C2\Nc3cccc(C(=O)N(C)CCF)c3N21` (single isomer, unassigned) [Example 71, (E)-N-(2-fluoroethyl)-N,11-dimethyl-3,5-dioxo-1^2,1^3-dihydro-1^1H-2,6-diaza-1(2,1)-benzo[d]imidazola-4(1,3)-benzenacycloundecaphane-1^7-carboxamide], the IC50 came out at 27 nM.
As to `CC1CCCCNC(=O)c2cccc(c2)C(=O)Nc2nc3cccc(-c4nccn4C(F)F)c3n21` (single isomer, unassigned) [Example 91, (E)-1^7-(1-(difluoromethyl)-1H-imidazol-2-yl)-11-methyl-1^2,1^3-dihydro-1^1H-2,6-diaza-1(2,1)-benzo[d]imidazola-4(1,3)-benzenacycloundecaphane-3,5-dione], the IC50 is 19 nM.
